The values that follow are results of earlier work, collected in paper PMC9112550, “Optimization of the antimicrobial peptide Bac7 by deep mutational scanning” (BMC Biology, 2022).

This data set deals with Salmonella typhimurium. The settings on record: 30 mg kg^−1, mice infected with Salmonella typhimurium intraperitoneally. The text has this:
Lastly, it is hard to judge if the activity increase of Bac7PS compared to Bac7_1-23 measured in vitro can be translated to in vivo experiments. […] In our study, all untreated mice already ...

With “Bac7_1-35: Bac7_1-35 (35 amino acid long) (RRIRPRPPRLPRPRPRPLPFPRPGPRPIPRPLPFP; Bactenecin-7; UniProt P19661 131-165, looked up, fragment)”, the efficacy is 36%. In addition, the mean survival (untreated control 10 days) is 24.5 days.
